Results published in US10882853B2, “Tyrosine kinase inhibitor and application thereof” (LaNova Medicines Limited, priority 2016, dated 2021).
Like-named read-outs stand apart in the source and are kept apart here.

How the values were obtained:
KDR = KDR (Homo sapiens (Human), UniProt P35968); assay: Inhibitory activity on KDR kinase (HTRF, XL-665/antibody); format: biochemical
Description: The compounds in the above Examples are used for detecting and screening the inhibitory activities of C-MET and KDR kinase.
(2) Incubated at 25° C. for 5 min;
(3) 2 μL of ATP/substrate/MgCl2/MnCl2/SEB/DTT mixed solution were added into the holes;
(4) Centrifugated at 1000 rpm for 1 min, and incubated by vibration at 30° C. for 30 min;
(6) Incubated at 25° C. for 1 h;
(8) The data was analyzed according to the instructions of the kit, and the fitting calculation of IC50 was performed using GraphPad Prism5.

[1] = test system: human malignant glioma cells U87MG; assay: Inhibition on the proliferation of tumor cells (CCK8), U87MG; format: cell-based; conditions: read-out: U87MG IC50
Description: (§1) (1) Culture cells: The tumor cells (such as human lung adenocarcinoma cells HCC78, human malignant glioma cells U87MG, human gastric cancer cells MKN-45, human umbilical vein endothelial cells HUVEC, human lung adenocarcinoma cells A549, etc.) were cultured in culture medium; culture conditions: 37° C., 5% CO2.
(§2) (2) Inoculate cells: The cells at the exponential growth phase and in good state were taken, and an appropriate amount of pancreatin for cell dissociation was added thereto, the cells were collected for centrifugation, and the supernatant was discarded. The cells were resuspended with the culture solution containing serum, then counted, and the cell suspensions were taken and inoculated in a 96-hole plate at 3000/hole, 90 μL/hole. The culture plate was transferred into a constant temperature CO2 incubator, and cultured under the conditions of 37° C., 5% CO2 and saturated humidity for 24 h.
(§3) (3) Add the test compounds: 10 μL/hole, culture for 72 h, 3 parallel holes were set for each group.
(§4) (4) Determine the results: After 72 h of action for the compounds, 10 μL/hole CCK8 was added, incubated in the incubator for an appropriate time, and the absorbance was measured at 450 nm.

[2] = test system: human lung adenocarcinoma cells A549; assay: Inhibition on the proliferation of tumor cells (CCK8), A549; format: cell-based; conditions: for IC50: read-out: A549 IC50
Description: as §1, §2, §3

[3] = test system: human ovarian cancer cells SK-OV-3; assay: Inhibition on the proliferation of tumor cells (CCK8), SK-OV-3; format: cell-based; conditions: for IC50: read-out: SK-OV-3 IC50
Description: as §1, §2, §3

[4] = test system: human colon cancer cells HCT116; assay: Inhibition on the proliferation of tumor cells (CCK8), HCT116; format: cell-based; conditions: for IC50: read-out: HCT116 IC50
Description: as §1, §2, §3

[5] = test system: human lung adenocarcinoma cells HCC78; assay: Inhibition on the proliferation of tumor cells (CCK8), HCC78; format: cell-based; conditions: read-out: HCC78 IC50
Description: as §1, §2, §3

[6] = test system: human gastric cancer cells MKN-45; assay: Inhibition on the proliferation of tumor cells (CCK8), MKN-45; format: cell-based; conditions: read-out: MKN-45 IC50
Description: as §1, §2, §3, §4

Sequence of KDR (P35968 20-1356): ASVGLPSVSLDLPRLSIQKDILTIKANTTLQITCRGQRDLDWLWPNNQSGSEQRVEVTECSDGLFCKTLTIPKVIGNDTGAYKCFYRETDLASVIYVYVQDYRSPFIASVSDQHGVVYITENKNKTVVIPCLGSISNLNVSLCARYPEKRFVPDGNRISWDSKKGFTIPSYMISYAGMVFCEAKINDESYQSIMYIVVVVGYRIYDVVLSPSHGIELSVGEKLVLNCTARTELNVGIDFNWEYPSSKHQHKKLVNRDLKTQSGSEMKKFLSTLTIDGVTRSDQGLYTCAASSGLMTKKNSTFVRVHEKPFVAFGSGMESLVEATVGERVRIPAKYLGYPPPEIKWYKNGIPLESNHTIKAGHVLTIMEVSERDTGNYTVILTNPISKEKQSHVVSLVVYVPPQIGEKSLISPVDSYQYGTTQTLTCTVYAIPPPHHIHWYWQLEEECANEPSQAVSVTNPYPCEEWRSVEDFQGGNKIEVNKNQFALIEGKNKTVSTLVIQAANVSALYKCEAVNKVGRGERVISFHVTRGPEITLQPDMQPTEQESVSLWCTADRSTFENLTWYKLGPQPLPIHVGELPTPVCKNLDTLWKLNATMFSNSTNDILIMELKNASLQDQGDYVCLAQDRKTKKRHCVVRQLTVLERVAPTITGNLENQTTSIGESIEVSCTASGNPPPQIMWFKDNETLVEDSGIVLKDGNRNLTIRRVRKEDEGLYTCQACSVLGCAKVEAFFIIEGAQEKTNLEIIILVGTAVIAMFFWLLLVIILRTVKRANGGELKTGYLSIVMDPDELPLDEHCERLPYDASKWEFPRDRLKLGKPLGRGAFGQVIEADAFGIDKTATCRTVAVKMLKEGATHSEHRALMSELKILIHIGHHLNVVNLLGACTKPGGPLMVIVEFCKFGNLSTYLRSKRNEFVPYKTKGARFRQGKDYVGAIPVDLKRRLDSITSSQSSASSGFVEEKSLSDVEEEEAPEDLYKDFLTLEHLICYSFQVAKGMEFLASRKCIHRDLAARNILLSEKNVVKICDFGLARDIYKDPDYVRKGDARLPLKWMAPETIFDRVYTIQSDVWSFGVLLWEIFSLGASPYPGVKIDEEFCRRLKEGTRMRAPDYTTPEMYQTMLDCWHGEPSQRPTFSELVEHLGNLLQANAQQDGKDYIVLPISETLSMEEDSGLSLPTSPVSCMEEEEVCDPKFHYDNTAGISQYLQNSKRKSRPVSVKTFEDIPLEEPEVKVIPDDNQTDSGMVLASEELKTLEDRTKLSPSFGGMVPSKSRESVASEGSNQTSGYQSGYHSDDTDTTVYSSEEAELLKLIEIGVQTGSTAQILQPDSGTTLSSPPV

COc1cc2c(Oc3ccc(NC(=O)C4(C(=O)Nc5ccc(F)cc5)CC4)cc3F)ccnc2cc1OC1CC(N2CCOCC2)C1 (centres unmarked) [Compound 10, N-p-fluorophenyl-N-3-fluoro-4-[6-methoxyl-7-(3-morpholine-cyclobutyl)oxyquinoline-4-]oxyphenyl cyclopropyl-1,1-dimethyl formamide]
IC50 (KDR): 64.2 nM
IC50 [1]: 1600 nM
IC50 [2]: 4400 nM
IC50 [3]: 7850 nM
IC50 [4]: 2600 nM
IC50 [5]: 107 nM
IC50 [6]: 3200 nM

COc1cc2c(Oc3ccc(NC(=O)C4(C(=O)Nc5ccc(F)cc5)CC4)cc3F)ccnc2cc1OCC1CC(N2CCOCC2)C1 (centres unmarked) [Compound 5]
IC50 (KDR): 39.9 nM
IC50 ([1]; 72 h, CCK8): 1140 nM
IC50 ([2]; 72 h, CCK8): 1600 nM
IC50 ([3]; 72 h, CCK8): 3490 nM
IC50 ([4]; 72 h, CCK8): 1660 nM
IC50 ([5]; Table 4 (FIG. 4), 72 h, CCK8): 44.2 nM
IC50 ([6]; 72 h, CCK8): 1260 nM

COc1cc2c(Oc3ccc(NC(=O)C4(C(=O)Nc5ccc(F)c(F)c5)CC4)cc3F)ccnc2cc1OCCC[N+]1(C)CCOCC1 [For-Methyl, reference compound]
A549 IC50 [2]: No inhibition
SK-OV-3 IC50 [3]: No inhibition
HCT116 IC50 [4]: No inhibition
IC50 ([5]; Homo sapiens, HCC78, 72 h): > 10000 nM

COc1cc2c(Oc3ccc(NC(=O)C4(C(=O)Nc5ccc(F)cc5)CC4)cc3F)ccnc2cc1OCCCN1CCOCC1 [Foretinib, reference compound]
IC50 ([1]; Homo sapiens, U-87 MG, 72 h): 1650 nM
IC50 ([2]; Homo sapiens, A549, 72 h): 2830 nM
IC50 ([3]; Homo sapiens, SK-OV-3, 72 h): 17200 nM
IC50 ([4]; Homo sapiens, HCT-116, 72 h): 2060 nM
IC50 ([6]; Homo sapiens, MKN-45, 72 h): 1870 nM
